# Laboratory results: patent US10624914B2, “Methods for determining the level of hyposialylation of Angptl4” (priority 2010, dated 2020)
# Entries after “also recorded” stand apart in the source; their conditions may differ.
# Experiments:
# Angptl4 [1] = experiment: Sialylation of recombinant Angptl4 in Angptl4-HEK293 stable cell line incubated with ManNAc; format: cell-based, rat; settings: ManNAc 25 mM, 48 hours
# Procedure: (§1) To study the effect of manNAc on the sialylation of recombinant protein, the Angptl4-HEK293 stable or pcDNA3.1-HEK293 control stable cell lines were grown to confluence in 15 cm dishes, washed twice with warm PBS, then incubated with serum free DMEM without phenol red with or without 25 mM manNAc for 48 hours, after which the media was harvested, concentrated, protein assay conducted, and loaded on the 2D gels (200 μg/gel). Western blots of glomeruli or recombinant protein were conducted using rabbit anti-Angptl4 (full length) antibody, preimmune rabbit serum and lectins SNA I-HRP and MAA-HRP (E-Y laboratories, San Mateo Calif. USA).
# NPHS2-Angptl4 TG rats = experiment: Albuminuria in NPHS2-Angptl4 TG rats given ManNAc in tap water; format: in vivo, rat
# Description: Transgenic rats were generated by microinjection of the digested DNA constructs into fertilized Sprague Dawley eggs (conducted at University of Michigan), implantation into pseudopregnant host Sprague Dawley females, and the resulting offsprings were genotyped by routine PCR and TaqMan genomic DNA real time PCR strategy using construct specific and control genomic prolactin primer and probe combinations. Two founder lines for podocyte specific expression were generated. Data from NPHS2-Angptl4 TG rat line 740 (5 copies of the transgene) and were stable over 4 generations, are presented. Urinary total protein was assessed using the Bradford method (Biorad laboratories, Hercules Calif. USA), and albuminuria by ELISA (Bethyl laboratories, Montgomery Tex. USA).
# To make the study affordable, 7 homozygous male NPHS2-Angptl4 rats, age 3-3.5 months, with 15-25 fold higher albuminuria than wild type rats, were given ManNAc 1 mg/ml of tap water for 12 days (ManNAc phase), after which three were euthanized and the others returned to plain tap water for another 24 days (washout phase). 18 hour urine collections were done twice (Day- 12 and Day 0) before the study to confirm rising albuminuria, and periodically during the study. Another seven male NPHS2-Angptl4 rats of similar age were assessed for baseline albuminuria levels, given normal tap water (control group), three euthanized on Day 12 and others followed up to day 36, after which albuminuria was reassessed and the animals euthanized. Daily water intake of each rat was charted. At each euthanasia time point, kidneys were removed after perfusion, glomeruli isolated and processed for 2D gel electrophoresis. Albuminuria on Day 0 for each rats was denoted as 100% and all subsequent albuminuria values were expressed relative to Day 0.
# [2] = system: Zucker Diabetic Fatty rats; experiment: Proteinuria in Zucker Diabetic Fatty rats treated with ManNAc; format: in vivo, rat; settings: 13 week old male rats, ManNAc in tap water, 70 mg/Kg up to 20 days and 140 mg/Kg, vs plain tap water
# Procedure: 13 week old male Zucker Diabetic Fatty rats were treated with ManNAc in tap water or with plain tap water (n=4 rats/group) at 70 and 140 mg/Kg.
# These high pI hyposialylated forms of Angptl4 are sensitive to sialic acid precursor therapy, including ManNAc and ManNAc derivatives. […] In FIG. 8C, 13 week old male Zucker diabetic fatty rats were treated with ManNAc in tap water or with plain tap water (n=4 rats/group).
# Angptl4 [3] = experiment: 2D gel electrophoresis, Western blot and densitometry of glomerular Angptl4 from ManNAc fed NPHS2-Angptl4 TG rats; format: in vivo, rat
# Description: The following techniques are described in prior publications: Taqman real time PCR (26), confocal imaging (7), in situ hybridization (27), promoter—reporter studies (7), immunogold EM (26), glomerular extraction and processing for Western blot (26), assessment of charge by PEI method (28); the foregoing references are hereby incorproated by reference for such teachings. For alcian blue staining, the pH of the staining solution was adjusted to 2.5 using acetic acid, and 0.1% nuclear fast red solution was used as a counterstain. Densitometry of glomerular basement membrane alcian blue stain (20 glomeruli/rat, 3 rats/group) was assessed using Image-Pro software (Media Cybernetics, Inc., Bethesda Md., USA). Densitometry of 2D gel Western blots was assessed using Gel-Pro Analyzer software (Media Cybernetics, Inc.). For in situ hybridization, the digoxigenin labeled probe for rat Angptl4 included bp 1 to 548 of the ORF.
# as §1, with “Western blots of glomeruli or recombinant protein were conducted using rabbit anti-Angptl4 (full length) antibody, preimmune rabbit serum and lectins SNA I-HRP and MAA-HRP (E-Y laboratories, San Mateo Calif. USA).” left out
# To make the study affordable, 7 homozygous male NPHS2-Angptl4 rats, age 3-3.5 months, with 15-25 fold higher albuminuria than wild type rats, were given ManNAc 1 mg/ml of tap water for 12 days (ManNAc phase), after which three were euthanized and the others returned to plain tap water for another 24 days (washout phase). […] Another seven male NPHS2-Angptl4 rats of similar age were assessed for baseline albuminuria levels, given normal tap water (control group), three euthanized on Day 12 and others followed up to day 36, after which albuminuria was reassessed and the animals euthanized. […]
# [4] = system: rats with puromycin aminonucleoside nephrosis (PAN model); experiment: Nephrotic syndrome parameters in puromycin aminonucleoside nephrosis (PAN model) rats treated with ManNAc; format: in vivo, rat; settings: ManNAc 80 mg/Kg body weight in tap water from Day 4, Day 6
# Procedure: FIGS. 7A-D show improvement in nephrotic syndrome parameters in ManNAc treated rats with puromycin aminonucleoside nephrosis (PAN model). In FIGS. 7A-7D, rats (n=5 rats/group) received a single intravenous injection of puromycin aminonucleoside (10 mg/100 gm), and were treated with ManNAC 80 mg/Kg body weight in tap water starting on Day 4, which coincides with the onset of proteinuria.
# Rats (n=5 rats/group) received a single intravenous injection of puromycin aminonucleoside (10 mg/100 gm), and were treated with ManNAC 80 mg/Kg body weight in tap water starting on Day 4, which coincides with the onset of proteinuria. Data from Day 6 is shown.
# mouse Angptl4 promoter = experiment: Angptl4 promoter-reporter (SEAP) study in HEK 293 cells and GECs; format: cell-based; settings: mifepristone 2×10^−5 M, glucocorticoid receptor antagonist
# Procedure: We conducted 5′ RACE and primer extension analysis using mouse kidney mRNA and confirmed the same transcriptional start site in the kidney. Next, a 2 Kb fragment upstream of the transcriptional start site was clone using BAC clone RP23-27D5 as a template into pSEAP2 basic. A 2 Kb human Angptl4 promoter constructs were similarly generated using BAC clone RP11-886P16.
# Incubation of HEK 293 cells and GECs transfected with Angptl4-pSEAP or empty vector promoter—reporter constructs for mouse Angptl4 with dexamethasone (10^−3 M) show a decline in SEAP activity at 48 hours. This decline in activity is mediated via the glucocorticoid receptor, since it is reversed by the receptor antagonist mifepristone (2×10^−5 M). Glucocorticoid sensitivity of the human promoter was also assessed (dexamethasone 10^−4 M). All transfection reactions were normalized using the pβgal vector (Clontech, Mountain View Calif. USA).
SMILES,reactivity of Angptl4 to sialic acid binding lectin MAA (Angptl4 [1]),sialylation of Angptl4 (Angptl4 [1]),"electrophoretic migration (pI) of secreted Angptl4 (Angptl4 [1]; serum free, concentrated supernatant)","18 hour albuminuria, nadir on Day 12 (NPHS2-Angptl4 TG rats; 1 mg/ml ManNAc in tap water for 12 days, Day 0 = 100%)",albuminuria (effect in words) (NPHS2-Angptl4 TG rats; ManNAc 1 mg/ml in tap water for 12 days),"reduction in albuminuria compared to baseline (NPHS2-Angptl4 TG rats; ManNAc 1 mg/ml in tap water, over a 12 day period)",albuminuria after washout (NPHS2-Angptl4 TG rats; after 12 days of washout following 12 days ManNAc 1 mg/ml),"reduction in albuminuria maintained (NPHS2-Angptl4 TG rats; pilot studies, heavily albuminuric NPHS2-Angptl4 rats, ManNAc 8 mg/ml tap water)","albuminuria (effect in words) (NPHS2-Angptl4 TG rats; pilot studies, heavily albuminuric rats, increasing doses of ManNAc (1 to 8 mg/ml))",proteinuria [2],"percentage of neutral pI forms of Angptl4 (effect in words) (Angptl4 [3]; Day 12, ManNAc fed rats vs control TG rats)","sialylation of glomerular Angptl4 (reactivity with lectin SNA I) (Angptl4 [3]; Day 12, ManNAc treated rats)","neutral pI Angptl4 fraction (densitometry of Western blots, glomerular Angptl4) (Angptl4 [3]; rats euthanized on Day 12, ManNAc 1 mg/ml) [%]",hypercholesterolemia (cholesterol) [4],hypertriglyceridemia (triglycerides) [4],plasma albumin levels [4],proteinuria ([4]; vs control PAN rats),dexamethasone-induced decline in SEAP activity (mouse Angptl4 promoter)
"CC(=O)N[C@@H]1C(O)O[C@H](CO)[C@@H](O)[C@@H]1O (stereo partly drawn) [ManNAc, N-acetylmannosamine]",increased reactivity,increased sialylation,shift of the protein towards neutral pI; also recorded: shift from high pI forms,59.4±3.3 % of baseline,reduced albuminuria; also recorded: significant reduction,over 40%,returned towards baseline values,20-30%,reduced albuminuria,Significant reduction,significant increase,increased sialylation,72.9 ± 1.4,significant reduction,significant reduction,significant improvement,significant reduction,–
CC#C[C@]1(O)CC[C@H]2[C@@H]3CCC4=CC(=O)CCC4=C3[C@@H](c3ccc(N(C)C)cc3)C[C@@]21C [mifepristone],–,–,–,–,–,–,–,–,–,–,–,–,–,–,–,–,–,reversed
